What was measured:
H4 neuroglioma cells = test: Extracellular Aβ after treatment of H4 cells with metalloprotease inhibitors; format: cell-based, human; conditions: H4 neuroglioma cells; thiorphan or captopril at concentrations greater than 1000-times the reported IC50 for the target enzymes
Procedure: Human and guinea pig Aβ40 or Aβ42 was measured in plasma by sandwich ELISA as previously described (Suzuki et al., 1994, Science, 264:1336-1340) using the BAN-50/BA-27 or BAN-50/BC-05 antibody systems, respectively (Takeda; Japan). Hamster Aβ40- or Aβ42-derived from CHO cells was measured using the BNT-77/BA-27 or BNT-77/BC-05 antibody systems, respectively. Aβ concentration in samples was determined by comparison to synthetic Aβ40 or Aβ42 standards (Bachem, Switzerland). Data was obtained from triplicate wells.
In particular, the sandwich ELISA used herein was performed as follows: 96-well microtiter plates were coated overnight at 4° C. with 100 μl of a 5 μg/ml dilution of primary antibody in sodium carbonate coating buffer (SCCB; 0.1 M Na2CO3, pH 9.6). Plates were blocked overnight at 4° C. with 300 μl of BLOCKAGE Solution (PBS+1.0% BLOCKAGE (Snow Brand Milk Products, Japan), 0.05% NaN3, pH 7.4). Samples for analysis and synthetic Aβ standards (Bachem, Switzerland) were diluted in buffer EC (0.02 M NaH2PO4, 0.002 M EDTA, 0.4 M NaCl, 0.2% BSA, 0.05% CHAPS, 0.04% BLOCKAGE, 0.05% NaN3, pH 7.0) and allowed to incubate on the plates overnight at 4° C. Plates were washed twice with PBS (8 mM Na2HPO4, 1.5 mM KH2PO4, 139 mM NaCl, 2.7 mM KCl, pH 7.4) and 100 μl of secondary antibody directly coupled to HRP (EZ-LINK™ Plus Activated Peroxidase kit (contents of kit: peroxidase, 5 M sodium cyanoborohydride solution (NaBH3CN), quenching buffer (3 M ethanolamine, pH 9.0), BupH™ phosphate buffered saline, Buph™ carbonate-bicarbonate buffer), according to manufacturers directions; Pierce Chemical Co., Rockford, Ill.) was allowed to bind either 4 hrs at room temperature or overnight at 4° C. Plates were then washed twice with PBS containing 0.05% Tween 20 followed by two additional washes in PBS. Detection was performed using TMB (3,3′,5,5′-tetramethyl-benzidine) as an HRP substrate according to the manufacturer's specifications (Kirkegaard & Perry Laboratories (KPL), Gaithersburg, Md.) and the reaction stopped by the addition of 100 μl of 1N H3PO4. Plates were read at 450 nm in a SpectraMax Plus spectrophotometer (Molecular Devices; Sunnyvale, Calif.) and analyzed by SOFTmax® PRO software. Aβ40 or Aβ42 were quantitated by comparison with the values obtained for each synthetic Aβ standard from the same plate.
Cells were passaged into 6-well plates one day prior to treatment and grown to confluence. […] After treatment, the culture medium was harvested, spun at 14,000 xg, and the supernatant analyzed for Aβ40 or Aβ42 using sandwich ELISA and for secreted APP using Western blot. […] Bound antibody was detected by incubation with the appropriate HRP-linked secondary antibody (Amersham, Uppsala, Sweden) using ECL™ Western blotting reagents (Amersham) followed by exposure to X-ray film. […]

Aβ in the brain = conditions: infusion into the brain of rats; deposition of Aβ42; previous report; cited from earlier work
synthetic Aβ40 or Aβ42 = test: Aβ degradation by SolECE-1, sandwich ELISA; format: biochemical; conditions: SolECE-1 approximately 0.2 μM; Aβ 0.01 μM; 24 hrs at 37° C., pH 6.5
Procedure: (§1) SolECE-1 (approximately 0.2 μM) was pre-incubated for 15 min at room temperature with the ECE inhibitors PD069185 (synthesized according to published methods (Ahn et al., 1998, Biochem. Biophys. Res. Comm., 243:184-190) by the Mayo Clinic Organic Chemistry Core Facility, Jacksonville, Fla.) or phosphoramidon (150 μM), or an equal volume of vehicle (DMSO or PBS, respectively) prior to incubation with synthetic Aβ40 or Aβ42 (0.01 μM) in 50 mM MES (pH 6.5) containing 0.01% C12E10, 1 mM PMSF, 100 μM leupeptin, and 20 μM pepstatin. As a control, Aβ was incubated with Ni-NTA purified proteins from non-transfected CHO cells, or in reaction buffer alone. Following incubation for 24 hrs at 37° C., the reactions were stopped by the addition of 5 mM EDTA. Aβ concentration was then analyzed using a highly specific sandwich ELISA that captures Aβ via binding of antibody BAN-50 to the N-terminus, and detects only full-length Aβ peptides ending at residue 40 (using antibody BA-27) or 42 (using antibody BC-05). Thus, Aβ that has been further hydrolyzed will not be detected using this assay. To further analyze the degradation of Aβ by SolECE1, the enzyme was incubated with ^3H labeled Aβ40 (0.56 μM, 2×10^4 dpm) as described above and resulting peptides were separated by reverse-phase chromatography.

3H-Aβ40 = test: Degradation of 3H labeled Aβ40 by SolECE-1, reverse-phase chromatography; format: biochemical; conditions: 3H-Aβ40 0.56 μM
Procedure: as §1

With C[C@H](CS)C(=O)N1CCC[C@H]1C(=O)O [captopril] as the molecule, how does the “extracellular Aβ accumulation” value (H4 neuroglioma cells) read?
The value was “failed to result in increased extracellular Aβ”.

Which “extracellular Aβ accumulation” value (H4 neuroglioma cells) does the source give for O=C(O)CNC(=O)C(CS)Cc1ccccc1 (centres unmarked) [thiorphan] here?
Its value is “failed to result in increased extracellular Aβ”.

What about the “amount of Aβ in the brain” value (Aβ in the brain) of the same molecule?
Its value is “significant increase”.

B1: SolECE-1: recombinant soluble form of ECE-1: extracellular domain of human ECE-1a with c-myc and 6×His tags, secreted by CHO cells (protein, UniProt P42892 90-770, looked up)
extracellular domain: QYQTRSPSVCLSEACVSVTSSILSSMDPTVDPCHDFFSYACGGWIKANPVPDGHSRWGTFSNLWEHNQAIIKHLLENSTASVSEAERKAQVYYRACMNETRIEELRAKPLMELIERLGGWNITGPWAKDNFQDTLQVVTAHYRTSPFFSVYVSADSKNSNSNVIQVDQSGLGLPSRDYYLNKTENEKVLTGYLNYMVQLGKLLGGGDEEAIRPQMQQILDFETALANITIPQEKRRDEELIYHKVTAAELQTLAPAINWLPFLNTIFYPVEINESEPIVVYDKEYLEQISTLINTTDRCLLNNYMIWNLVRKTSSFLDQRFQDADEKFMEVMYGTKKTCLPRWKFCVSDTENNLGFALGPMFVKATFAEDSKSIATEIILEIKKAFEESLSTLKWMDEETRKSAKEKADAIYNMIGYPNFIMDPKELDKVFNDYTAVPDLYFENAMRFFNFSWRVTADQLRKAPNRDQWSMTPPMVNAYYSPTKNEIVFPAGILQAPFYTRSSPKALNFGGIGVVVGHELTHAFDDQGREYDKDGNLRPWWKNSSVEAFKRQTECMVEQYSNYSVNGEPVNGRHTLGENIADNGGLKAAYRAYQNWVKKNGAEHSLPTLGLTNNQLFFLGFAQVWCSVRTPESSHEGLITDPHSPSRFRVIGSLSNSKEFSEHFRCPPGSPMNPPHKCEVW
modifications: extracellular domain c-myc and 6xHis tags
notes: recombinant soluble form of ECE-1: extracellular domain of human ECE-1a with c-myc and 6×His tags, secreted by CHO cells
What does the source list for B1?
loss of synthetic Aβ40 and Aβ42 detected by sandwich ELISA (synthetic Aβ40 or Aβ42): almost complete loss; effect on 3H-Aβ40 by reverse-phase chromatography (3H-Aβ40): loss of the full-length (i.e., unhydrolyzed) Aβ and the formation of at least 4 novel peaks

— patent publication US6699681B2, “Endothelin converting enzymes and the amyloid β peptide” (Mayo Foundation for Medical Education and Research, priority 2000, dated 2004)
